This is an account of results in US20080318949A1, “Pyrazolopyrimidinone Derivatives, Their Preparation And Their Use” (Topharman Shanghai Co., Ltd, priority 2005, published 2008).

This assay deals with T1, PDE5 from human platelets (Homo sapiens, UniProt O76074).
T1 construct: from tissue; host or cells: human platelets
As to the kind of experiment: PDE5 inhibitory activity test (scintillation proximity assay). Type of assay: biochemical. The following applies: PDE5 from human platelets. The text has this:
The PDE5 and PDE3 were isolated form human platelets, while the PDE6 was isolated form bovine retinas. The enzyme inhibitory activity test conducted immediately after the enzymes had been isolated, using a scintillation proximity assay for the direct detection of AMP/GMP by the TRKQ7100 and TRKQ7090 kit. In summary, the effect of PDE inhibitors was investigated by assaying a fixed amount of enzyme in the presence of varying inhibitor concentrations and low substrate. The final assay volume was made up to 100 μl with 10 μl assay buffer (50 mM Tris/HCl PH 7.5, 8.3 mM MgCl2, 1.7 mM EGTA), and water. Reactions were initiated with enzyme, incubate for 30 minutes at 30° C. and terminated with 50 μl yttrium silicate SPA beads suspension containing zinc sulphate. Shook for 20 minutes and settled for 30 minutes in the dark, then counted on a BECKMAN LS6500 MULTI-PURPOSE SCINTILLATION COUNTER. The IC50 value for the compounds according the present invention was calculated according the counts.
According to the above-mentioned method, the inhibitory activities of some compounds of formula IA and IB according to the invention against PDE5 from human platelets were determined.
A general note: Scintillation proximity formats need no separation of bound from free tracer.
`CCCOc1ccc(S(=O)(=O)N(CCCO)CCCO)cc1-c1nc2c(CCC)nn(C)c2c(=O)[nH]1` [Example 37] displayed an IC50 of 4.9 nM. This lies in the single-digit nanomolar range.

“1-methyl-5-{2-propoxy-5-[[1-(3-ethoxyethyl)-1-(2-hydroxyethyl)]amidosulfonyl]phenyl}-3-n-propyl-1,6-dihydro-7H-pyrazolo[4,3-d]pyrimidin-7-one [Example 116]” returned an IC50 of 11.2 nM.

As for “1-methyl-5-{2-methoxyethoxy-5-[bis(2-hydroxyethyl)amidosulfonyl]phenyl}-3-n-propyl-1,6-dihydro-7H-pyrazolo[4,3-d]pyrimidin-7-one [Example 10]”, half-maximal inhibition (IC50) required 22.2 nM.

On to `CCCc1nn(C)c2c(=O)[nH]c(-c3cc(S(=O)(=O)N(CCN4CCOCC4)Cc4ccccc4)ccc3OC)nc12` [Example 26, 1-methyl-5-{2-methoxy-5-[[1-benzyl-1-(2-morpholin-1-yl)ethyl]amidosulfonyl]phenyl}-3-n-propyl-1,6-dihydro-7H-pyrazolo[4,3-d]pyrimidin-7-one], for which the half-inhibitory concentration (IC50) came out at 24.9 nM.

In turn, “1-methyl-5-{2-propoxy-5-[[1-(2-pyridylmethyl)-1-(2-piperidin-1-yl)ethyl]amidosulfonyl]phenyl}-3-n-propyl-1,6-dihydro-7H-pyrazolo[4,3-d]pyrimidin-7-one [Example 87]” came in with a half-inhibitory concentration (IC50) of 8.77 nM. Against the preceding compound, the IC50 is about 2.8-fold lower.

`CCCc1nn(C)c2c(=O)[nH]c(-c3cc(S(=O)(=O)N(CCOCCO)CCN(CC)CC)ccc3OCC)nc12` [Example 16, 1-methyl-5-{2-ethoxy-5-[1-(2-diethylaminoethyl)-1-(2-hydroxyethoxyethyl)amidosulfonyl]phenyl}-3-n-propyl-1,6-dihydro-7H-pyrazolo[4,3-d]pyrimidin-7-one]: the IC50 was determined as 13.4 nM.

As for `CCCOc1ccc(S(=O)(=O)N(C)CCN(C)CCO)cc1-c1nc2c(CCC)nn(C)c2c(=O)[nH]1` [Example 23, 1-methyl-5-{2-propoxy-5-{[1-methyl-1-[2-[1-methyl-1-(2-hydroxyethyl)]amino]ethyl]amidosulfonyl}phenyl}-3-n-propyl-1,6-dihydro-7H-pyrazolo[4,3-d]pyrimidin-7-one], 0.072 nM corresponded to half-maximal inhibition (IC50).

`CCCc1nn(C)c2c(=O)[nH]c(-c3cc(S(=O)(=O)N(CC)CCN(CC)CCO)ccc3OCC)nc12` [Example 18] had an IC50 of 6.32 nM.

`CCOc1ccc(S(=O)(=O)N(CCOC(C)=O)CCOC(C)=O)cc1-c1nc2c(CC)nn(C)c2c(=O)[nH]1` [Example 6, 1-methyl-5-{2-ethoxy-5-[bis(2-acetoxyethyl)amidosulfonyl]phenyl}-3-ethyl-1,6-dihydro-7H-pyrazolo[4,3-d]pyrimidin-7-one] displayed a half-maximal inhibitory concentration (IC50) of 0.74 nM.

`CCCc1nn(C)c2c(=O)[nH]c(-c3cc(S(=O)(=O)N(CCOCCOC(C)=O)CCN(CC)CC)ccc3OCC)nc12` [Example 15, 1-methyl-5-{2-ethoxy-5-[1-(2-diethylaminoethyl)-1-(2-acetoxyethoxyethyl)amidosulfonyl]phenyl}-3-n-propyl-1,6-dihydro-7H-pyrazolo[4,3-d]pyrimidin-7-one] had an IC50 of 10.6 nM. Compared with the last compound, the IC50 is about 14-fold higher.

Take `CCCc1nn(C)c2c(=O)[nH]c(-c3cc(S(=O)(=O)N(C)CCN(C)CCOCCOCCOCc4ccccc4)ccc3OCC)nc12` [Example 22, 1-methyl-5-{2-ethoxy-5-{[1-methyl-1-[2-[1-methyl-1-(2-benzyloxyethoxyethoxyethyl)]amino]ethyl]amidosulfonyl}phenyl}-3-n-propyl-1,6-dihydro-7H-pyrazolo[4,3-d]pyrimidin-7-one]: it took 0.294 nM to reach half-maximal inhibition (IC50).

Compound `CCCc1nn(C)c2c(=O)[nH]c(-c3cc(S(=O)(=O)N(CCO)CCN(CC)CC)ccc3OCC)nc12` [Example 13, 1-methyl-5-{2-ethoxy-5-[1-(2-diethylaminoethyl)-1-(2-hydroxyethyl)amidosulfonyl]phenyl}-3-n-propyl-1,6-dihydro-7H-pyrazolo[4,3-d]pyrimidin-7-one] displayed an IC50 of 7.37 nM.

`CCCOc1ccc(S(=O)(=O)N(CCO)CCN(CC)CC)cc1-c1nc2c(CCC)nn(C)c2c(=O)[nH]1` [Example 14, 1-methyl-5-{2-propoxy-5-[1-(2-diethylaminoethyl)-1-(2-hydroxyethyl)amidosulfonyl]phenyl}-3-n-propyl-l,6-dihydro-7H-pyrazolo[4,3-d]pyrimidin-7-one] gave an IC50 of 0.862 nM.

In turn, `CCCOc1ccc(S(=O)(=O)N(CC)CCN2CCOCC2)cc1-c1nc2c(CCC)nn(C)c2c(=O)[nH]1` [Example 41, 1-methyl-5-{2-propoxy-5-[[1-ethyl-1-(2-morpholin-1-yl)ethyl]amidosulfonyl]phenyl}-3-propyl-1,6-dihydro-7H-pyrazolo[4,3-d]pyrimidin-7-one] returned an IC50 of 10.5 nM.

In turn, “1-methyl-5-{2-propoxy-5-[[1-(2-hydroxyethoxyethyl)-1-(2-morpholin-1-yl)ethyl]amidosulfonyl]phenyl}-3-n-propyl-1,6-dihydro-7H-pyrazolo[4,3-d]pyrimidin-7-one [Example 104]” gave a concentration for half-maximal inhibition (IC50) of 13.1 nM. The IC50 values of the last two compounds are within 1.5-fold of each other.

On to “1-methyl-5-{2-propoxy-5-[[1-ethyl-1-(2-acetoxyethyl)]amidosulfonyl]phenyl}-3-n-propyl-1,6-dihydro-7H-pyrazolo[4,3-d]pyrimidin-7-one [Example 94]”, for which the IC50 came to 5.41 nM.

Consider `CCCc1nn(C)c2c(=O)[nH]c(-c3cc(S(=O)(=O)N(CCOC)CCN(CC)CC)ccc3OCC)nc12` [Example 11, 1-methyl-5-{2-ethoxy-5-[[1-(2-diethylaminoethyl)-1-(2-methoxyethyl)]amidosulfonyl]phenyl}-3-n-propyl-1,6-dihydro-7H-pyrazolo[4,3-d]pyrimidin-7-one], for which inhibition was half-maximal at 38.1 nM (IC50).

In turn, `CCOc1ccc(S(=O)(=O)N(CCN2CCOCC2)Cc2ccccc2)cc1-c1nc2c(CC)nn(C)c2c(=O)[nH]1` [Example 27, 1-methyl-5-{2-ethoxy-5-[[1-benzyl-1-(2-morpholin-1-yl)ethyl]amidosulfonyl]phenyl}-3-ethyl-1,6-diydro-7H-pyrazolo[4,3-d]pyrimidin-7-one] yielded an IC50 of 0.456 nM.

The compound “1-methyl-5-{2-ethoxy-5-{[1-methyl-1-[2-[1-methyl-1-(2-hydroxyethyl)]amino]ethyl]amidosulfonyl}phenyl}-3-n-propyl-1,6-dihydro-7H-pyrazolo[4,3-d]pyrimidin-7-one [Example 21]” returned an IC50 of 0.928 nM.

`CCCc1nn(C)c2c(=O)[nH]c(-c3cc(S(=O)(=O)N(CCOC(C)=O)CCOC(C)=O)ccc3OCCOC)nc12` [Example 9, 1-methyl-5-{2-methoxyethoxy-5-[bis(2-acetoxyethyl)amidosulfonyl]phenyl}-3-n-propyl-1,6-dihydro-7H-pyrazolo[4,3-d]pyrimidin-7-one] came in with a concentration for half-maximal inhibition (IC50) of 16.9 nM.

`CCOc1ccc(S(=O)(=O)N(CCO)CCO)cc1-c1nc2c(CC)nn(C)c2c(=O)[nH]1` [Example 8] had a 50% inhibitory concentration (IC50) of 2.14 nM.

In the case of `CCCc1nn(C)c2c(=O)[nH]c(-c3cc(S(=O)(=O)N(CCOCCO)CCN4CCOCC4)ccc3OCC)nc12` [Example 28, 1-methyl-5-{2-ethoxy-5-[[1-(2-hydroxyethoxyethyl)-1-(2-morpholin-1-yl)ethyl]amidosulfonyl]phenyl}-3-n-propyl-1,6-dihydro-7H-pyrazolo[4,3-d]pyrimidin-7-one], half-maximal inhibition (IC50) required 0.681 nM. Against the preceding compound, the IC50 is about 3.1-fold lower.

In the case of “1-methyl-5-{2-propoxy-5-[[1-benzyl-1-(2-pyrrolidin-1-yl)ethyl]amidosulfonyl]phenyl}-3-n-propyl-1,6-dihydro-7H-pyrazolo[4,3-d]pyrimidin-7-one [Example 84]”, the IC50 worked out at 11.7 nM.

With `CCOc1ccc(S(=O)(=O)N(CCOC(=O)c2cccnc2)CCOC(=O)c2cccnc2)cc1-c1nc2c(CC)nn(C)c2c(=O)[nH]1` [Example 7, 1-methyl-5-{2-ethoxy-5-[bis(2-nicotinoyloxyethyl)amidosulfonyl]phenyl}-3-ethyl-1,6-dihydro-7H-pyrazolo[4,3-d]pyrimidin-7-one], the IC50 was 0.5 nM.

For “1-methyl-5-{2-ethoxy-5-[bis(3-acetoxypropyl)amidosulfonyl]phenyl}-3-n-propyl-1,6-dihydro-7H-pyrazolo[4,3-d]pyrimidin-7-one [Example 108]”, the IC50 stood at 17.4 nM. This IC50 is about 35-fold higher than that of the compound before.

Consider `CCCc1nn(C)c2c(=O)[nH]c(-c3cc(S(=O)(=O)N(CCOC(C)=O)CCN(CC)CC)ccc3OCC)nc12` [Example 12, 1-methyl-5-{2-ethoxy-5-[[1-(2-diethylaminoethyl)-1-(2-acetoxyethyl)]amidosulfonyl]phenyl}-3-n-propyl-1,6-dihydro-7H-pyrazolo[4,3-d]pyrimidin-7-one], for which the IC50 was 6.98 nM.

`CCCc1nn(C)c2c(=O)[nH]c(-c3cc(S(=O)(=O)N(CCO)CCN4CCCCC4)ccc3OCC)nc12` [Example 29, 1-methyl-5-{2-ethoxy-5-[[1-(2-hydroxyethyl)-1-(2-piperidin-1-yl)ethyl]amidosulfonyl]phenyl}-3-n-propyl-1,6-dihydro-7H-pyrazolo[4,3-d]pyrimidin-7-one] displayed an IC50 of 0.31 nM. Against the preceding compound, the IC50 is about 23-fold lower.

`CCOc1ccc(S(=O)(=O)N(CC)CCN(CC)CCOC(C)=O)cc1-c1nc2c(CC)nn(CC)c2c(=O)[nH]1` [Example 19, 1-ethyl-5-{2-ethoxy-5-{[1-ethyl-1-[2-[1-ethyl-1-(2-acetoxyethyl)]amino]ethyl]amidosulfonyl}phenyl}-3-n-propyl-1,6-dihydro-7H-pyrazolo[4,3-d]pyrimidin-7-one] showed an IC50 of 4.29 nM.

Compound “1-methyl-5-{2-ethoxy-5-{[1-ethyl-1-[2-[1-ethyl-1-(2-hydroxyethoxyethyl)]amino]ethyl]amidosulfonyl}phenyl}-3-n-propyl-1,6-dihydro-7H-pyrazolo[4,3-d]pyrimidin-7-one [Example 20]” yielded an IC50 of 0.505 nM.

By IC50 is commonly meant the midpoint of a concentration-inhibition curve.
